# Data published in US9014457B2, “Quantifying cell death” (UCL Business PLC, priority 2009, dated 2015).
# “Also recorded” adds a separate entry of the source. Structures can show the parent of a compound that is named as a salt. Where two headings read alike, the source gives them in different places. Where a SMILES comes first, the peptide text is derived from it. The star is where a group is joined. Cbz = O=C(OCc1ccccc1)*
# What was measured:
# RGC [1] = details: compared with MK-801; cited from earlier work
# NMDA receptors = details: cited from earlier work
# Bad = details: in vivo; cited from earlier work
# RGC [2] = details: in comparison to the controls; cited from earlier work
# RGCs [3] = details: in vitro and in vivo; cited from earlier work
# RGC [4] = test: Abeta (Aβ25-35)-induced RGC death model, in vivo cSLO imaging with annexin V and PI; set-up: species or system mouse
# Procedure: (§1) For the analysis of Abeta, freshly made Aβ25-35 (Sigma-Aldrich, 3.40 nmol) (Dahlgren et al., 2002) was intravitreally injected into C57 mice (n=10) (Maass et al., 2007). Animals were imaged at 72 hours. For AD 3× Tg-AD studies, 4 eyes (all female, 14 months) with 2 eyes from aged control mice (PS1KI; female, 18 months) were assessed. 3× Tg-AD and control PS1KI mice were obtained from a colony (maintained at CeSI) established after a generous gift of Frank Laferla. Intravitreal phorbol myristate acetate (1 μl of 10 μg/ml) was administered to left eyes of 3× Tg-AD animals, at the same time as annexin V and PI.
# (§2) Using a method the inventors have recently described, rats were given 2.5 μg of intravitreal Alexa Fluor 488 labelled annexin V in 5 μl PBS for identification of RGC apoptosis, 2 hours before in vivo imaging (Cordeiro et al., 2004). For mice, the inventors used 1 μl of a 0.25 mg/ml solution of IR-labelled annexin (Annexin-IR) in intravitreal injections as previously described (Schmitz-Valckenberg et al., 2008).
# (§3) In order to identify necrotic RGCs in rats (2 μl) and mice (1 μl), propidium iodide (PI; 0.4 mg/ml, 1% solution, Sigma-Aldrich, Dorset UK) was administered intravitreally at the same time as annexin, 2 hours before in vivo imaging. PI intercalates into nucleic acids, binding to double-stranded DNA, but only crosses the plasma membrane of non-viable cells. Cells that have lost membrane integrity are thus identified by fluorescent red PI staining throughout the nuclei.
# (§4) In mice, the inventors used instrumentation as previously described (Maass et al., 2007; Schmitz-Valckenberg et al., 2008), with a modified cSLO (Heidelberg Retina Angiograph 2, Heidelberg Engineering, Dossenheim, Germany) and a wide-field lens (55°). The fluorescein angiogram (488 nm argon laser) and indocyanine green (IR 790 nm diode laser) settings were used to detect PI and IR-labelled annexin respectively. The same software was used to analyse video sequenced images as described before with whole retinal monochrome images from each eye recorded and colourised. Dual-color images were produced by combining each of the grayscale images from the cSLO into the red (PI), and green (IR annexin) of an RGB color image.
# The left eye of each animal was treated with intravitreal 0.40 nmol MK801 at the same time as Abeta. Wide-angle retinal images were recorded 2 hours following intravitreal annexin (green) and PI (red), as previously described (Guo at al., 2006).
# To assess the relative levels of early apoptosis, late apoptosis and necrosis the inventors studied the co-localization of PI and annexin V using ImageJ software with the Intensity Correlation Analysis plugin (Li et al., 2004). Colour and raw scatter plots of annexin and PI fluorescence intensity were constructed from plugin-generated data for each animal. Corresponding scatter plots (blue) from the eyes shown in FIG. 8a-b are illustrated in FIG. 8c-d. The data were analysed in a similar manner to data derived by in vitro FACS analysis, with four quadrants (midlines shaded in colour overlay as red, green, blue and yellow) enabling separation of the different phases of cell death as annexin V positive (early apoptosis, green), annexin V and PI double positive (late apoptosis, yellow) and PI positive (necrosis, red). Thresholds were set automatically by the plugin for each analysis of each eye. The inventors then used fluorescence intensity counts from the raw scatter plots to quantify each phase of cell death.
# To further assess the analytical power of the technique, the inventors next investigated whether the level of oxidative stress in Abeta-treated eyes influenced the phase of cell death and whether this was possible to visualize in vivo. […] FIG. 8f-g are taken from the right untreated (F) and left PMA-treated (G) eye of an animal treated 72 hours previously with 3.40 nmol Aβ25-35. […]
# RGC [5] = test: Chronic ocular hypertensive (OHT) experimental glaucoma model, in vivo imaging with annexin V and PI; set-up: species or system rat
# Excerpt: For the experimental glaucoma studies, the inventors used an established model of ocular hypertension. 18 rats underwent surgery to elevate intraocular pressure (IOP) by injection of hypertonic saline solution (1.8 M) into two episcleral veins as previously described (Cordeiro et al., 2004). Contralateral, unoperated eyes acted as controls. Animals were imaged at 0, 3, 8, and 16 weeks, with at least 3 animals at each time point being killed for histology immediately after imaging. A subgroup of animals (n=4) was treated at the time of surgery with the NMDA antagonist MK801 (0.6 nmol; Tocris Cookson Ltd, Bristol UK). These animals were imaged at 3 weeks and then killed for histology.
# as §2, §3
# All rats had in vivo retinal imaging performed at regular and set intervals after experimental treatment, using a prototype Zeiss confocal scanning laser ophthalmoscope (cSLO), as previously described (Cordeiro et al., 2004; Maass et al., 2007). Imaging was performed under general anaesthesia with animals being held in a stereotaxic frame, with their pupils dilated. Different lasers and filters were used for the different fluorochromes: for excitation of Alexa Fluor 488 an Argon laser wavelength of 488 nm, and a solid state photodetector with a 521 nm cut-off filter and a 550 nm cut-on filter was employed; for DiI, a diode-pumped crystal green laser with a wavelength of 532 nm was used with 550 nm cut-off and 600 nm cut-on filters; the same laser was used for PI visualization but with a 650 nm cut-off. […] Colour and raw scatter plots of annexin and PI fluorescence intensity were constructed, so data could be analysed in a similar manner to data derived by in vitro FACS analysis. […] Fluorescence intensity counts derived from raw scatter plots were used to quantify each phase of cell death. […]
# retinal neurons = details: in vitro; cited from earlier work
# RGCs [6] = details: cited from earlier work
# RGC [7] = test: Alzheimer Triple Transgenic (3× Tg-AD) model and aged PS1KI control, retinal cell death imaging; assay type: in vivo, mouse
# Procedure: as §1, §2, §3, §4
# However, in these studies aged (27 month) wild type congeners were not assessed.
# The inventors next investigated whether oxidative stress in AD eyes influenced the phase of cell death and whether this could be visualized in vivo. As intraneuronal Aβ accumulation and extracellular Abeta plaques are characteristics of this model (LaFerla et al., 2007), the inventors hypothesised that the addition of PMA would reveal whether the level of Abeta in this transgenic mouse is sufficient to modulate the retinal response in vivo (Abramov et al., 2005). […]
# [8] = test system: ROS production in the retina; test: ROS production in mouse retina in vivo visualized with DHE; details: intravitreal; vs vehicle/control eye
# Procedure: FIG. 12B. The effects of rotenone on ROS production in mouse retina in vivo. ROS production visualized with DHE (dihydroethidium). DHE is a non-fluorescent agent, reacting with ROS intracellularly to produce a fluorescent oxidative product which can be detected. Rotenone (50 uM, 1 ul) was intravitreally injected into the one eye (C57) and the same volume of vehicle (saline) injected into the contralateral eye. DHE (1 ul) was then injected intravitreally and both eyes imaged to detect ROS production using a SLO machine.
# FIG. 12C. The effects of PMA in producing ROS in mouse retina in vivo. PMA (50 ug/ml, 1 ul) was injected intravitreally into the one eye and saline (1 ul) into the contralateral eye. DHE (1 ul) was simultaneously injected for detecting ROS production.
# FIG. 12D. The effects of Aβ25-35 on ROS production in vivo. DHE was intravitreally injected into the both eyes of a mouse to detect ROS production.
# [9] = test system: astrocyte cultures (NADPH oxidase); details: 1 μg/ml; cited from earlier work
# [10] = in vivo; cited from earlier work
# RGC [11] = details: in vitro and in vivo; cited from earlier work
# [12] = test system: neurons within the contra-lateral Lateral geniculate Body; details: in vivo; cited from earlier work
# neuronal cells = details: in vitro; cited from earlier work
# RGC [13] = details: in vivo; cited from earlier work
# [14] = phase III, patients with OAG; cited from earlier work
# RGC [15] = details: rat, in vivo; cited from earlier work
# RGC [16] = details: topical application; cited from earlier work
# [17] = human, in vivo; cited from earlier work
# RGCs [18] = details: rat; cited from earlier work
# [19] = Abeta + MK801 vs Abeta alone, 72 h
# [20] = 3 weeks after elevated IOP induction
compound,measurement,setting,value
O=[N+]([O-])c1cc2nc(O)c(O)nc2cc1[N+](=O)[O-] [DNQX],RGC survival,RGC [1],greater enhancement
"C[C@]12N[C@H](Cc3ccccc31)c1ccccc12 [MK801, (+)-5-methyl-10,11-dihydro-5H-dibenzo[a,d]cyclohepten-5,10-imine maleate]",neurotoxicity,NMDA receptors,neurotoxic effect
same,Bad expression,Bad,decreasing
same,number of apoptotic RGCs,RGC [2],reduction
same,RGC protection,RGCs [3],protect RGCs
same,number of annexin V and PI positive cells,"RGC [4]; 72 hours after intravitreal 3.40 nmol Aβ25-35, MK801 0.40 nmol intravitreal at the same time as Abeta, vs Abeta-only fellow eye",reduces
same,necrosis (PI+),RGC [4]; [19],clearly reduced; also recorded: reducing
same,number of cells in late phase apoptosis (Anx+/PI+),RGC [4]; [19],clearly reduced; also recorded: reducing
same,number of early phase apoptotic cells (Anx+),RGC [4]; [19],small increase
same,overall levels of cell death (Total),"RGC [4]; Abeta + MK801 vs Abeta alone, 72 h, co-localization scatter plot quantification",clearly reduced
same,late phase apoptosis (Anx+/PI+),RGC [5]; [20],significant reduction; also recorded: significant decrease
same,levels of necrosis (PI+),RGC [5]; [20],significant reduction; also recorded: significant decrease
same,number of dying cells (Total cell death markers),"RGC [5]; 3 weeks after elevated IOP induction, p<0.05",significant reduction
same,numbers of annexin V and PI positive (apoptotic and necrotic) cells,"RGC [5]; MK801 0.6 nmol at the time of surgery, 3 weeks, vs untreated OHT",significantly reduced
COc1ccc2[nH]cc(CCNC(C)=O)c2c1 [Melatonin],protection of retinal neurons,retinal neurons,protected
same,effect on RGCs in vivo,RGCs [6],neuroprotective effect
"CCCCCCCCCCCCCC(=O)O[C@@H]1[C@@H](C)[C@@]2(O)[C@@H](C=C(CO)C[C@]3(O)C(=O)C(C)=C[C@@H]23)[C@@H]2C(C)(C)[C@]12OC(C)=O [PMA, phorbol myristate acetate]",late apoptosis (Anx+/PI+),"RGC [7]; 3× Tg-AD model, p<0.05",decreased
same,increase in early phase apoptosis (Anx+),"RGC [7]; 14-month 3× Tg-AD, 2 hours after intravitreal PMA with annexin and PI",61.4%
same,increase in early phase apoptosis (Anx+),"RGC [7]; aged control (PS1KI, 18 month), 2 hours after intravitreal PMA",30.3%
same,necrosis,"RGC [7]; control eyes, p<0.05",decreased
same,ROS production in the retina (DHE fluorescence),[8],significantly higher levels of ROS production
same,ROS generation (lucigenin),[9],increase
same,overall levels of cell death (Total),"RGC [4]; Abeta + PMA vs Abeta, all treated animals, p<0.05",significantly (p<0.05) increases
same,number of cells in the early phase of apoptosis (Anx+),"RGC [4]; Abeta + PMA vs Abeta, p<0.05",significantly (p<0.05) increased; also recorded: significant (p<0.05) increase
same,annexin V (and PI) positive cells,"RGC [4]; PMA 0.016 nmol with annexin V and PI, 72 hours after 3.40 nmol Aβ25-35, imaging 2 hours later, vs vehicle eye",increased
Nc1nc2ccc(OC(F)(F)F)cc2s1 [Riluzole],ERG wave recovery,[10],enhance
same,pressure-induced apoptosis,[10],prevent or decrease
"CC(C)C[C@@H](C=O)NC(=O)[C@H](CC(C)C)NC(=O)[C@@H](NC(=O)OCc1ccccc1)C(C)C [Z-VLL-CHO, N-benzyloxycarbonyl-Val-Leu-leucinal] (Cbz-Val-Leu-Leu-aldehyde)",RGC apoptosis,RGC [11],reduce
"CC12CC3CC(C)(C1)CC(N)(C3)C2 [memantine, 1-amino-3,5-dimethyl-adamantane]","shrinkage of neurons (LGB layers 1, 4, and 6)",[12],reduction
same,NMDA-induced neuronal death,neuronal cells,reduction
same,RGC loss,RGC [13],decreased
same,primary end point,[14],ineffective
Geranylgeranylacetone,RGC loss,RGC [15],marked reduction
same,expression of HSP-72,RGC [15],increase
NGF: nerve growth factor,RGC apoptosis,RGC [16],reducing
same,functional effect in patients,[17],neuroprotective effects functionally
glatiramer acetate [Cop-1],activity on RGCs in vivo,RGCs [18],neuroprotective activity
